# Measured values taken from ChEMBL document CHEMBL1201862, “PubChem BioAssay data set” (2004).
# Active and inactive are the calls of the source.
# Columns and labels:
# [1] = molecular target: T1, Polyadenylate-binding protein 1 (Homo sapiens, UniProt P11940); test: MLLE binding blockers, Cy5 peptide tracer – biochemical, fluorescence polarization, Cy5-PAM2 peptide, secondary, miRNA deadenylation inhibitor project, dose response (AID 602260); assay type: functional; details: read-out: IC50_Mean
# T1 sequence (P11940 whole entry, the tested form may be a part): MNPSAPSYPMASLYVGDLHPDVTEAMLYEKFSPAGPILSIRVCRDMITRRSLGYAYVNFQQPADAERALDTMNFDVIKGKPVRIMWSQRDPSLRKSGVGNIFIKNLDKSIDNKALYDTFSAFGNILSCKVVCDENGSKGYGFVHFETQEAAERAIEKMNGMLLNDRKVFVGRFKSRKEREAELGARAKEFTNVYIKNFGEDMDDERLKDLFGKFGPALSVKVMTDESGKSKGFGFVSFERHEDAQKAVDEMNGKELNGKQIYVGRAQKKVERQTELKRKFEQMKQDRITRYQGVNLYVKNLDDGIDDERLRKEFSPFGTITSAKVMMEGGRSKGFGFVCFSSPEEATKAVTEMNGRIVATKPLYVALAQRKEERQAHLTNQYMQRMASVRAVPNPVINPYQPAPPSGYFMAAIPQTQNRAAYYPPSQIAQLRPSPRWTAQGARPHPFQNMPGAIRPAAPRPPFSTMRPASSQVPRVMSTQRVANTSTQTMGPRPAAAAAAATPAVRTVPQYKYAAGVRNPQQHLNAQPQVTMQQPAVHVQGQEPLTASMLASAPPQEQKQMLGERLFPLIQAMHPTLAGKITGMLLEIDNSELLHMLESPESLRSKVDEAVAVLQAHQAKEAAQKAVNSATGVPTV
# [2] = molecular target: T1, Polyadenylate-binding protein 1; test: MLLE domain peptide-binding blockers, IC50 – biochemical, fluorescence polarization, FITC-PAM2 peptide, dose response (AID 602259); assay type: functional; details: read-out: IC50_Mean
# [3] = blockers of HIV-1 envelope-mediated cell-cell fusion – cherry-pick, dose response (AID 652057); assay type: functional, cell-based
# [4] = blockers of HIV-1 ZM109 envelope-driven cell-cell fusion – HeLa effector, CEM target cells, luciferase, cherry-pick, dose response (AID 652058); assay type: functional, cell-based;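 note: luciferase signal from HIV-1 Env mediated cell-cell fusion of effector and target cells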
# [5] = off-target signal loss in HeLa-CEM21 co-culture – HeLa F-luc CTL cells, cherry-picked, counter-screen for HIV-1 Env fusion inhibitor project, dose response (AID 652040); assay type: functional, cell-based;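 note: potency for signal decrease marking cytotoxic or nonspecific inhibition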
# [6] = HIV-1 AD8 envelope cell-cell fusion blockers – cherry-pick, dose response (AID 652062); assay type: functional, cell-based;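 note: luciferase signal from cell-cell fusion driven by HIV-1 clade B AD8 Env; potency is for inhibitors of fusion seen as a drop in luminescence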
# [7] = molecular target: T2, Rac GTPase-activating protein 1 (Homo sapiens, UniProt Q9H0H5); test: blockers of MgcRacGAP-driven Rac1 GTP hydrolysis – biochemical, ADP Hunter fluorescence, primary and confirmatory, confirmation (AID 624330); assay type: functional
# T2 sequence (Q9H0H5 whole entry): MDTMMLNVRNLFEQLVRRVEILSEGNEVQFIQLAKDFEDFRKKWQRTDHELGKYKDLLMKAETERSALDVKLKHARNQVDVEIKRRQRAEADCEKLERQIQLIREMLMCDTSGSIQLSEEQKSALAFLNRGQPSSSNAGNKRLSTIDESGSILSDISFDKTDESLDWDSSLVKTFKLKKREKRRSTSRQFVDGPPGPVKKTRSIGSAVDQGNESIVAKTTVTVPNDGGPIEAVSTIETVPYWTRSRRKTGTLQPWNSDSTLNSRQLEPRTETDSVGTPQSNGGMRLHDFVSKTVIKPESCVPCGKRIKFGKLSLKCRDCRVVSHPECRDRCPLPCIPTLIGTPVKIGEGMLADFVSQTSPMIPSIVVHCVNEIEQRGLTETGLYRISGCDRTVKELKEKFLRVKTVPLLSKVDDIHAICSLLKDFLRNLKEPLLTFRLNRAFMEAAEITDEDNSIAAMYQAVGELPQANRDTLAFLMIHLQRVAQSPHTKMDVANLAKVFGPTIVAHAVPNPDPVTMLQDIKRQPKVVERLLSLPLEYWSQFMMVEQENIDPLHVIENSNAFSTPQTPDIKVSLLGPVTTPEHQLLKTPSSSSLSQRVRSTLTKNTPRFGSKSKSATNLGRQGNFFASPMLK
# [8] = molecular target: T3, Histone-lysine N-methyltransferase NSD2 (Homo sapiens, UniProt O96028); assay type: biochemical
# T3 sequence (O96028 whole entry): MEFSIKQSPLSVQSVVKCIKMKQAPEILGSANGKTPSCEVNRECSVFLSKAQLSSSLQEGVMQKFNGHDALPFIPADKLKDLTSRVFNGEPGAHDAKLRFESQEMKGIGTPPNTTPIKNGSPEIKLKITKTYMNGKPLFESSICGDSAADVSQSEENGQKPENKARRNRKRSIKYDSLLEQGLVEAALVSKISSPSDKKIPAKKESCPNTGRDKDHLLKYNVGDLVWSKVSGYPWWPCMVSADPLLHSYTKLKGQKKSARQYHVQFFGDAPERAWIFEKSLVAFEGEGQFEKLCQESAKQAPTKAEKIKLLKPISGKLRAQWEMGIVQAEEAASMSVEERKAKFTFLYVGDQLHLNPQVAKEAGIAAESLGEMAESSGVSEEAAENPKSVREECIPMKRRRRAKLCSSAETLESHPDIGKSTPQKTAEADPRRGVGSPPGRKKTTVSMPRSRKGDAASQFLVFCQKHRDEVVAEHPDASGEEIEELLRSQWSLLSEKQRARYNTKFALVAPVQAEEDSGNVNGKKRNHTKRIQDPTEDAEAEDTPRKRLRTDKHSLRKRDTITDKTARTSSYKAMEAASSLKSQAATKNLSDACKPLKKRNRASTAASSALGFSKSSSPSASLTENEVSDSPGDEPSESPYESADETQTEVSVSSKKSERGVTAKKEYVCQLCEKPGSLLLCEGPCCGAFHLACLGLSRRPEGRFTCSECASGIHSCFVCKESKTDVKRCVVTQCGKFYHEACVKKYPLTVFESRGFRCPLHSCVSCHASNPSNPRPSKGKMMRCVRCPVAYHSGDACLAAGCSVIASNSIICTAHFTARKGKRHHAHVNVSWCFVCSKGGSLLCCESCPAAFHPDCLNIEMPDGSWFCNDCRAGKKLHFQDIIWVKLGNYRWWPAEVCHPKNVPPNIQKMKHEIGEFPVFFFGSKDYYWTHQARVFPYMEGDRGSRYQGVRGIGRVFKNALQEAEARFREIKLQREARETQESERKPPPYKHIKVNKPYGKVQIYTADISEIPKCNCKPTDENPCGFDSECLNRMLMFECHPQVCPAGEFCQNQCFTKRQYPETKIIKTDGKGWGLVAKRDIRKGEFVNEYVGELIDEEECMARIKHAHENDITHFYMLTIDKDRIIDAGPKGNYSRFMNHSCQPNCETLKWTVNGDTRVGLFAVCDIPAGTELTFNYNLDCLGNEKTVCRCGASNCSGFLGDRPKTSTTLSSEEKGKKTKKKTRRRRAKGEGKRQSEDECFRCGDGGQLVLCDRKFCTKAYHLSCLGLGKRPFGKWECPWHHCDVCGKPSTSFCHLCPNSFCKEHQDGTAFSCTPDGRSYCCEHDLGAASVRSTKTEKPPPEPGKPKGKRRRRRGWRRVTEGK
# [9] = molecular target: Induced myeloid leukemia cell differentiation protein Mcl-1 (Homo sapiens, UniProt Q07820); assay type: functional
# Induced myeloid leukemia cell differentiation protein Mcl-1, sequence (Q07820 whole entry): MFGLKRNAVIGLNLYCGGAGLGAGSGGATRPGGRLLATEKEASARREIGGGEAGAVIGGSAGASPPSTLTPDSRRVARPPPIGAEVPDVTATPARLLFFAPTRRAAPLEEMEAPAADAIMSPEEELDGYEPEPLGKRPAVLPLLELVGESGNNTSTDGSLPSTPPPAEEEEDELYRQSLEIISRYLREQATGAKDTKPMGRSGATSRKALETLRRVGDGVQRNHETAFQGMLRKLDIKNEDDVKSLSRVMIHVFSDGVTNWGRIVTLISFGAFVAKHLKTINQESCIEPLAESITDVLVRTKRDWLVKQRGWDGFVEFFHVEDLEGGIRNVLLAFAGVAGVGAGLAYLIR
# [10] = molecular target: T4, High affinity choline transporter 1 (Homo sapiens, UniProt Q9GZV3); test: human choline transporter blockers, potency – cell-based, 5-point CRC, membrane potential dye, dose response (AID 504840); assay type: functional
# T4 sequence (Q9GZV3 whole entry): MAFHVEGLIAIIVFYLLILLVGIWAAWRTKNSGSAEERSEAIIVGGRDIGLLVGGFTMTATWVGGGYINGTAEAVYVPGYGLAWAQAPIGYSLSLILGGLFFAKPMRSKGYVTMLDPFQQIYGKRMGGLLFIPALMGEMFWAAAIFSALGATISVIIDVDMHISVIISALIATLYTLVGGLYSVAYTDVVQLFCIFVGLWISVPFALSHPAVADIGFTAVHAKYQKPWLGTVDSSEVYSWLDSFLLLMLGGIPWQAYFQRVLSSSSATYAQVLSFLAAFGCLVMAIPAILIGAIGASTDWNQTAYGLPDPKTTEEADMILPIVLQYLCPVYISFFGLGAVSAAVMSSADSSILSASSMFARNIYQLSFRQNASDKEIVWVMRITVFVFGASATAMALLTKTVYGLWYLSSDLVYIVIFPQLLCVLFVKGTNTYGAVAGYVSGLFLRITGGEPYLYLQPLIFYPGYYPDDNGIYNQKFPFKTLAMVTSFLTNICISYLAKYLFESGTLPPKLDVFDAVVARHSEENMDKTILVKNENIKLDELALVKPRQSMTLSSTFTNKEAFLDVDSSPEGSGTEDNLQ
# [11] = molecular target: T5, Carboxy-terminal domain RNA polymerase II polypeptide A small phosphatase 1 (Homo sapiens, UniProt Q9GZU7); test: CTDSP1 inhibitors, concentration-response, biochemical, absorbance readout, ultra-high-throughput screen actives (AID 540297); assay type: functional
# T5 sequence (Q9GZU7 whole entry): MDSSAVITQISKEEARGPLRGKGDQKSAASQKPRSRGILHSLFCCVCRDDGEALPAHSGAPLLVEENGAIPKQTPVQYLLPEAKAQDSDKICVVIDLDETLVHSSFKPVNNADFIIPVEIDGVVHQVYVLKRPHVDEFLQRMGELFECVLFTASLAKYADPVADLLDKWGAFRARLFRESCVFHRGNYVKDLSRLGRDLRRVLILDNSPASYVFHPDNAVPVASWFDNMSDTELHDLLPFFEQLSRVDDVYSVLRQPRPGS
# P388/ADR = test: cells; assay type: functional; details: Mus musculus
# SN12K1 = test: cells; assay type: functional; details: Homo sapiens
# P388 = test: cells; assay type: functional; details: Mus musculus
smiles,measurement,setting,value
CCOCC(=O)Nc1nnc(COc2ccc(Cl)cc2)s1,IC50,[1],> 66 µM (inactive)
same,IC50,[2],> 66 µM (inactive)
CC(C)(C)N1C(=O)[C@H]2[C@@H](c3ccc(Br)cc3)N3C(=O)N(c4cccc(Cl)c4)C(=O)[C@@]3(C)[C@H]2C1=O,AC50,[3],0.464 µM (active)
same,AC50,[4],0.542 µM (active)
same,AC50,[5],0.843 µM (active)
same,AC50,[6],3.2 µM (active)
O=[N+]([O-])c1ccccc1Nc1ccc(O)cc1,IC50,[7],22.6 µM (active)
same,AC50,[8],> 20 µM (inactive)
CCCn1c(N)c(C(=S)NC(=O)C2CC2)c(=O)n(C)c1=O,IC50,[1],> 66 µM (inactive)
same,IC50,[2],> 66 µM (inactive)
Cc1ccc(-c2cc(C(=O)NCCCn3ccnc3)c3cc(Br)ccc3n2)o1,IC50,[9],3.07 µM (not active)
same,IC50,[10],11.5 µM (active)
CCOP(=O)(Cc1cc(C(C)=O)c(C)o1)OCC,IC50,[1],> 66 µM (inactive)
same,IC50,[2],> 66 µM (inactive)
CCCCNC(=O)c1sc(=S)n(-c2ccccc2OC)c1N,IC50,[1],> 66 µM (inactive)
same,IC50,[2],> 66 µM (inactive)
Cn1c(O)nc2cc3ccccc3cc21,AC50,[3],1.46 µM (active)
same,AC50,[4],53.3 µM (active)
same,AC50,[5],0.717 µM (active)
same,AC50,[6],4.99 µM (active)
N#C/C(=C/c1ccc(-c2ccc(C(=O)O)c(Cl)c2)o1)C(=O)NCC1CCCO1 (stereo not drawn),IC50,[11],33.2 µM (active)
O=C(CCN1C(=O)/C(=C/c2ccc(F)cc2)SC1=S)Nc1cc([N+](=O)[O-])ccc1O,IC50,[11],7.68 µM (active)
COc1ccc(C(=O)CCN2CCC(C)CC2)cc1,IC50,[1],> 66 µM (inactive)
same,IC50,[2],> 66 µM (inactive)
CC(=O)c1cccc(NC(=O)COc2cc3oc(=O)c(CC(C)O)c(C)c3cc2Cl)c1 (stereo not drawn),IC50,[11],12.5 µM (active)
CCN1C(=O)[C@H]2[C@H]3CN=C(SCc4ccc(Cl)cc4)N3[C@@](CC)(C(=O)OC)[C@H]2C1=O,AC50,[3],3.34 µM (active)
same,AC50,[4],3.37 µM (active)
same,AC50,[5],3.59 µM (active)
same,AC50,[6],5.43 µM (active)
CCn1c(C)cc(C)[n+]1-c1ccccc1,IC50,[11],13.2 µM (active)
CCCNC(=O)C(C)C1CCC2(C)C=CC(=O)C(C)=C2C1O (stereo not drawn),GI50,P388/ADR,> 100 µM (inactive)
same,GI50,SN12K1,> 100 µM (inactive)
same,GI50,P388,> 100 µM (inactive)
C[C@H]1COC(c2ccccn2)=N1,GI50,P388/ADR,> 100 µM (inactive)
same,GI50,SN12K1,> 100 µM (inactive)
same,GI50,P388,> 100 µM (inactive)
CC12CCC3C(CCC4=CC(O)CCC43C=O)C1(O)CCC2c1ccc(=O)oc1 (stereo not drawn),GI50,P388/ADR,0.21 µM (active)
same,GI50,SN12K1,0.05 µM (active)
same,GI50,P388,< 0.1 µM (active)
CC1(C)N=C(N)N=C(N)N1c1ccc(CCCCc2ccc(S(=O)(=O)F)cc2Cl)c(Cl)c1,GI50,P388/ADR,0.369 µM (active)
same,GI50,SN12K1,0.979 µM (active)
same,GI50,P388,0.05 µM (active)
CCNCCCCNCC,GI50,P388/ADR,> 3750 µM (inactive)
same,GI50,SN12K1,> 3750 µM (inactive)
same,GI50,P388,1560 µM (inactive)
COc1ccc2nc3c(C(=O)NCCN(C)C)cccc3cc2c1,GI50,P388/ADR,0.652 µM (active)
same,GI50,SN12K1,0.944 µM (active)
same,GI50,P388,0.305 µM (active)
NC(Cc1cc(I)c(O)c(I)c1)C(=O)O (stereo not drawn),GI50,P388/ADR,21.3 µM (inactive)
same,GI50,SN12K1,169 µM (inactive)
same,GI50,P388,21.6 µM (inactive)
NC(=O)c1[nH]nc(C2OC(CO)C(O)C2O)c1O (stereo not drawn),GI50,P388/ADR,0.5 µM (active)
same,GI50,SN12K1,0.561 µM (active)
same,GI50,P388,0.5 µM (active)
[N-]=[N+]=CC(=O)CCC(NC(=O)C(CCC(=O)C=[N+]=[N-])NC(=O)CCC(N)C(=O)O)C(=O)O (stereo not drawn),GI50,P388/ADR,> 100 µM (inactive)
same,GI50,SN12K1,> 100 µM (inactive)
same,GI50,P388,> 100 µM (inactive)
CC[C@@]1(C(=O)OC)N[C@H](CN(C)C(=O)Nc2ccc(C(F)(F)F)cc2)[C@@H]2C(=O)N(Cc3ccccc3)C(=O)[C@@H]21,AC50,[3],0.336 µM (active)
same,AC50,[4],0.604 µM (active)
same,AC50,[5],0.74 µM (active)
same,AC50,[6],1.21 µM (active)
C[C@H]1CN([C@@H](C)CO)C(=O)Cc2cc(NC(=O)Nc3ccccc3)ccc2O[C@H]1CN(C)S(=O)(=O)c1ccccc1,AC50,[3],5.16 µM (active)
same,AC50,[4],4.49 µM (active)
same,AC50,[6],5.2 µM (active)
CN(C)c1cccc2c(S(=O)(=O)Nc3ccccn3)cccc12,AC50,[8],15.3 µM (active)
CCN(CC)CCNC(=O)c1c(C)[nH]c(/C=C2\C(=O)Nc3ccc(F)cc32)c1C,AC50,[8],> 20 µM (inactive)
CCCCC1NC(C(=O)O)CS1 (stereo not drawn),IC50,[1],> 66 µM (inactive)
same,IC50,[2],> 66 µM (inactive)
